Test results reported in paper PMC9042801 (RSC Advances, 2021).

Tests used:
[1] = system: influenza virus A/Puerto Rico/8/34 (H1N1); conditions: for SI (CC50/IC50): influenza virus A/Puerto Rico/8/34 (H1N1), MDCK cells
[2] = in vitro; conditions: dog
[3] = system: vaccine virus (VV, strain Copenhagen); experiment: organism not typed; format: cell-based
[4] = system: herpes simplex virus type 1 (HSV-1, strain VR-3); experiment: Antiviral activity against HSV-1 on Vero cells; format: cell-based; conditions: HSV-1, Vero cells, moi 0.01, 3 days
[5] = system: bovine diarrhea virus (BDV) (strain VC-1); experiment: Antiviral activity against BDV on CCV cells; format: cell-based
[6] = system: MDCK cell line; conditions: MTT, 72 h
[7] = CC50, MDCK cell line, MTT, 72 h

With `NC(=O)c1ncn([C@@H]2O[C@H](CO)[C@@H](O)[C@H]2O)n1` [Ribavirin, reference compound] the “SI (CC50/IC50)” value [1] was 59 and the CC50 [2] was > 2130 µM.

With `Cn1c(C(F)(F)F)c(I)c(=O)n1-c1ccccc1` [Compound 5a, 4-iodo-5-trifluoromethyl-antipyrine] the “SIBOB (selectivity index)” value ([3]; VV, Vero cells) was 2.9, the “activity against the vaccine virus (strain Copenhagen), in words” value ([3]; Vero cells) was “weak activity” and the IC50 ([3]; Vero, 72 h) was 103 ± 10 µM. The IC50 [4] was “Inactive”, the IC50 ([5]; 72 h) was 46.9 ± 2 µM and the “SIVDC (selectivity index)” value ([5]; BDV, CCV cells) was 6.4. The “activity against bovine diarrhea virus (strain VC-1), in words” value ([5]; CCV cells) was “weak activity” and the CC50 [2, 7] was > 815 µM.

With `Cn1c(C(F)(F)F)c(C#Cc2ccccc2)c(=O)n1-c1ccccc1` [Compound 6a, 1-methyl-2-phenyl-4-(phenylethynyl)-5-(trifluoromethyl)-1,2-dihydro-3H-pyrazol-3-one] the “SI (CC50/IC50)” value [1] was 15, the CC50 [6] was > 877 µM and the CC50 [2, 7] was > 815 µM.

With `CSc1ccc(-c2c(C(F)(F)F)n(C)n(-c3ccccc3)c2=O)cc1` [Compound 3g] the IC50 [1] was > 91 µM and the CC50 [2, 7] was 263 ± 19 µM.

Work on `Cn1c(C(F)(F)C(F)(F)F)c(I)c(=O)n1-c1ccccc1` [Compound 5b] yielded a CC50 [2, 7] of 378 ± 26 µM.
